Data set [1] deals with T1, ABL1 (64-515) (Homo sapiens (Human), UniProt P00519). Kind of data set: Radio ABL1 (64-515) assay (radiometric filter-binding). The class given is biochemical.
Procedure: For determination of ABL kinase activity, the radiometric filter-binding assay was used. […] Pre-incubation of enzyme with compounds (when stated) was performed by exposing the enzyme to compounds prior to addition of the substrate mixture (ATP and/or peptide substrate). […] Millipore, Volketswil, Switzerland) prepared according to the manufacturer's instructions. Filter-plates were washed 3× with 0.5% H3PO4, followed by addition of 30 μL scintillation cocktail (Microscint, Perkin Elmer) per well and then analysed in a TopCount NXT scintillation counter (Perkin Elmer). Results were expressed as IC50 values.
Another data set relates to Ba/F3-BCR-ABL1-WT cells. Kind of data set: Ba/F3-BCR-ABL1-WT cellular proliferation assay. The class given is cell-based, murine. The following applies: Mus musculus, read-out: Ba/F3-BCR-ABL1-WT IC50.
Data set [2] can be described thus: Compound concentration in mouse brain and plasma. The note with it: 5 minutes after a single intravenous injection of 1 mg/kg in mice; for Kp at 5 min / concentration at 5 min: mouse; for Kp at 5 min: brain/plasma, read-out: Mean Ratio (brain/plasma); for concentration at 5 min: plasma, read-out: Mean blood (drug concentration in plasma). In kind it is in vivo.
Procedure: Approximately two parts volume of MeOH/water (2/8 v/v) were added to the preweighted brain samples (˜250 mg) and subsequently homogenized using Covaris™ instrument. A 50 μL aliquot was subjected to protein precipitation and analysis as described below.
Fifty μL aliquots of blood or brain homogenate from animals treated with c-ABL inhibitors were first spiked with 5 μL of the internal standard (N-(4-methyl-3-((4-(6-methylpyridin-3-yl)pyrimidin-2-yl)amino)phenyl)-4-((4-methylpiperazin-1-yl)methyl)benzamide for positive ion mode 5-chloro-N-(4-(N-(cyclohexylcarbamoyl)sulfamoyl)-phenethyl)-2-methoxybenzamide for negative ion mode, respectively), subsequently deproteinated by adding MeCN (200 μL), centrifuged, the supernatant evaporated to dryness, and re-dissolved in 100 μL of a MeOH/water (1/1 v/v). Five μL were subjected to HPLC-MS/MS analysis. Chromatographic separation from interfering endogenous and exogenous contaminants was achieved on an Phenomenex™ Polar RP reversed-phase HPLC column (particle size: 2.5 μm; column dimensions: 2×50 mm) using a linear gradient of 100% water containing 1% formic acid (A), and MeOH supplemented with 1% formic acid (B), which was run over 6.0 min from 5% to 90% B, then kept at 100% B for 1.0 min, and a subsequent 1.5 min postrun with re-equilibration of the column. The column was kept at 50° C. The flow of 350 μL/min from the HPLC system (Flux Rheos Allegro LC pump and CTC Pal autosampler) was directly introduced into the ion source of an Finnigan™ Quantum Ultra MS-detector (triple stage quadrupole mass analyzer) and subjected to heated electrospray ionization (HESI).
c-ABL inhibitors were specifically detected using multiple reaction monitoring from their quasi-molecular parent ion ([M+H]^+ or [M−H]^−) to specific daughter ions as given in the table below. Quantification of blood and brain levels of c-ABL inhibitors compounds were based on a 6-level calibration curve made in triplicate.
Data set [3] has as its system Ba/F3-BCR-ABL1-T315I cells. Kind of data set: Ba/F3-BCR-ABL1-T315I cellular proliferation assay. In kind it is cell-based, murine. The note with it: Mus musculus, read-out: Ba/F3-BCR-ABL1-T315I IC50. The source says: The murine bone marrow-derived cell line Ba/F3 was used to generate the appropriate cell line models. Ba/F3 cells were obtained from the German Collection of Microorganisms and Cell Cultures (DSMZ, Braunschweig and DSMZ No. ACC 300). […] These cells are referred to as Ba/F3-WT.
To generate Ba/F3 cells that depend on BCR-ABL1 expression for growth and survival, Ba/F3 cells were engineered to express BCR-ABL1 using retroviral transduction with a MSCV based retroviral vector containing a p210 BCR-ABL1expression cassette. When grown in the absence of IL-3, the proliferation of the cells is dependent on the expression of BCR-ABL1. (Daley, G. Q. and Baltimore, D. Transformation of an interleukin 3-dependent hematopoietic cell line by the chronic myeloid leukemia-specific p210 BCR-ABL1 protein. PNAS 1988; 85:9312-9316). These cells are referred to as Ba/F3-BCR-ABL1-WT. A similar approach was used to generate Ba/F3 cells that depend on a BCR-ABL1 variant in which threonine 315 is replaced with isoleucine. These cells are referred to as Ba/F3-BCR-ABL1-T3151.
Ba/F3-WT cells were maintained in RPMI1640 media with L-glutamine, HEPES (Lonza), 10% FBS (Gibco) and 5 ng/ml IL-3 (Calbiochem). Ba/F3-BCR-ABL1-WT cells and Ba/F3-BCR-ABL1-T3151 cells were maintained in RPMI1640 media with L-glutamine, HEPES (Lonza) and 10% FBS (Gibco).
For each cell line, the cell density was adjusted to 50 000 cells/mL and 50 μL (2500 cells) added per well of a 384-well assay plate.
Test compounds were resuspended in DMSO at a concentration of 10 mM. A serial three-fold dilution of each compound with DMSO was performed in 384-well plates using the Janus Liquid Dispenser (PerkinElmer). Compound was delivered to the assay plates containing 2500 cells in a 50 μL volume via Acoustic delivery from an ATS-100 (EDC). For Ba/F3-BCR-ABL1-WT cell assays, […] of each compound dilution was transferred to the assay plate for final assay concentrations of 0.4 μM, 0.13 μM, 0.044 μM, 0.015 μM, 0.005 μM, 0.001 μM, 0.00033 μM, 0.00011 μM, 0.000037 μM, 0.000012 μM. For Ba/F3-WT and Ba/F3-BCR-ABL1-T315I cell assays, […] of each compound dilution was transferred to the assay plate for final assay concentrations of 10 μM, 3.33 μM, 1.11 μM, 0.37 μM, 0.12 μM, 0.041 μM, 0.014 μM, 0.0046 μM, 0.0015 μM, 0.00051 μM.
Cells were incubated at 37° C. in a humidified environment with 5% carbon dioxide for 48 hours. Britelite plus solution (Perkin Elmer) was prepared according to the manufacturer's instructions and 25 μL added to each well of the assay plate. Plates were incubated for 3-5 minutes and the luminescence detected on an EnVision Multimode plate reader (Perkin Elmer). The degree of luminescence correlates with the number of cells in each well. The effect of each inhibitor concentration can therefore be calculated and IC50 values generated.

Data set [4] addresses T1, ABL1 (64-515). Kind of data set: Caliper ABL1 (64-515) assay (microfluidic mobility shift). In kind it is biochemical.
Procedure: All assays were performed in 384-well microtiter plates. Each assay plate contained 8-point serial dilutions for 40 test compounds, as well as four 8-point serial dilutions of staurosporine as a reference compound, plus 16 high and 16 low controls. Liquid handling and incubation steps were done on a Thermo CatX workstation equipped with Innovadyne Nanodrop Express. Between pipetting steps, tips were cleaned in wash cycles using wash buffer.
The assay plates were prepared by addition of 50 nL per well of compound solution in 90% DMSO. […] Plates with terminated kinase reactions were transferred to the Caliper LC3000 workstations for reading. Phosphorylated and unphosphorylated peptides were separated using the Caliper microfluidic mobility shift technology. Briefly, samples from terminated kinase reactions were applied to the chip. Analytes are transported through the chip by constant buffer flow and the migration of the substrate peptide is monitored by the fluorescence signal of its label. Phosphorylated peptide (product) and unphosphorylated peptide (substrate) are separated in an electric field by their charge/mass ratio. Kinase activities were calculated from the amounts of formed phospho-peptide. IC50 values were determined from percent inhibition values at different compound concentrations by non-linear regression analysis.
Test compounds were dissolved in DMSO (10 mM) and transferred into 1.4 mL flat bottom or V-shaped Matrix tubes carrying a unique 2D matrix. The stock solutions were stored at +2° C. if not used immediately. For the test procedure the vials were defrosted and identified by a scanner whereby a working sheet was generated that guided the subsequent working steps.
Compound dilutions were made in 96-well plates. This format enabled the assay of maximally 40 individual test compounds at 8 concentrations (single points) including 4 reference compounds. The dilution protocol included the production of “pre-dilution plates”, “master plates” and “assay plates”.
Polypropylene 96-well plates were used as pre-dilution plates. […] All dilution steps were done on a HamiltonSTAR robot.
These plates were used directly for the assay which was performed in a total volume of 9.05 μL.

pIC50: −log10 of the molar value. Like-named read-outs stand apart in the source and are kept apart here. Where only a bound is given, the exact number is not on record here.

T1 sequence (P00519 64-515): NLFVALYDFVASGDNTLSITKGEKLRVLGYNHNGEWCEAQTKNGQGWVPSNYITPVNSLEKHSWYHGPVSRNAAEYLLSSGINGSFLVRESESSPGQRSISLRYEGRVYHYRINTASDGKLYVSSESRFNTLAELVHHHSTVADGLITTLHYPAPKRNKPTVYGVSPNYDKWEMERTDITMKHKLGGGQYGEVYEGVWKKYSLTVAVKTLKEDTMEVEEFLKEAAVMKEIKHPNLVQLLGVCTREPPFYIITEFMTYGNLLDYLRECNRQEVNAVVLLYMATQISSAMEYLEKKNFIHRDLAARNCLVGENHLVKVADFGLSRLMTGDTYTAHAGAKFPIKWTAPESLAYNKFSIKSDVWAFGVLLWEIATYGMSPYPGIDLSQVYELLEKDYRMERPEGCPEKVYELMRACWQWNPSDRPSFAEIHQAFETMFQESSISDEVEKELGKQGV
Procedure for Ba/F3-BCR-ABL1-WT cells: To generate Ba/F3 cells that depend on BCR-ABL1 expression for growth and survival, Ba/F3 cells were engineered to express BCR-ABL1 using retroviral transduction with a MSCV based retroviral vector containing a p210 BCR-ABL1expression cassette. […] These cells are referred to as Ba/F3-BCR-ABL1-WT.
Cells were incubated at 37° C. in a humidified environment with 5% carbon dioxide for 48 hours. Britelite plus solution (Perkin Elmer) was prepared according to the manufacturer's instructions and 25 μL added to each well of the assay plate. […] The degree of luminescence correlates with the number of cells in each well. The effect of each inhibitor concentration can therefore be calculated and IC50 values generated.

Regarding `O=C(Nc1ccc(OC(F)(F)Cl)cc1)c1cccc(-c2cncnc2)c1` [Example 10, N-(4-(Chlorodifluoromethoxy)phenyl)-3-(pyrimidin-5-yl)benzamide], the figures for the pIC50 (on ABL1 (64-515) [1]; in the data set with Ba/F3-BCR-ABL1-WT cells (48 hours); in data set [3] (48 hours)) were 8.02, 8.68 and 6.40, respectively. In data set [2], the “Mean brain (drug concentration in brain)” value was 4093 pmol/g. Moreover, the Kp at 5 min in data set [2] came to 3.24. For the same compound, in data set [2], the concentration at 5 min was 1.26 µM.

At ABL1 (64-515) [1], `O=C(Nc1ccc(SC(F)(F)F)cc1)c1cccc(-c2cncnc2)c1` [Example 11, 3-(Pyrimidin-5-yl)-N-(4-((trifluoromethyl)thio)phenyl)benzamide] showed a pIC50 greater than 8.52. Also, the pIC50 with Ba/F3-BCR-ABL1-WT cells (48 hours) is 8.41. For the same compound, in data set [2], the “Mean brain (drug concentration in brain)” value amounted to 7341 pmol/g, the Kp at 5 min turned out to be 4.99 and the concentration at 5 min worked out at 1.47 µM. In addition, the pIC50 in data set [3] (48 hours) was 6.25.

On to `Cc1ccc(C(=O)Nc2ccc(OC(F)(F)F)cc2)cc1-c1cncnc1` [Example 14, 4-Methyl-3-(pyrimidin-5-yl)-N-(4-(trifluoromethoxy)phenyl)benzamide], for which the pIC50 at ABL1 (64-515) [1] is 8.07; with Ba/F3-BCR-ABL1-WT cells (48 hours), 8.68; at ABL1 (64-515) [4], 8.46; in data set [3] (48 hours) it was 6.51.

`Cc1ccc(C(=O)Nc2ccc(OC(F)(F)F)cc2)cc1-n1ccnc1` [Example 16, 3-(1H-Imidazol-1-yl)-4-methyl-N-(4-(trifluoromethoxy)phenyl)benzamide]: the pIC50 is 8.40 at ABL1 (64-515) [1], 8.92 with Ba/F3-BCR-ABL1-WT cells (48 hours) and 6.21 in data set [3] (48 hours).

As for `COc1ccc(C(=O)Nc2ccc(OC(F)(F)F)cc2)cc1-c1cncnc1` [Example 30, 4-methoxy-3-(pyrimidin-5-yl)-N-(4-(trifluoromethoxy)phenyl)benzamide], the pIC50 with Ba/F3-BCR-ABL1-WT cells (48 h) was 8.39; in data set [3] (48 h), 6.07. Besides, the “Mean brain (drug concentration in brain)” value in data set [2] was 4471 pmol/g. In data set [2], the concentration at 5 min turned out to be 5.39 µM.

With `O=C(Nc1ccc(OC(F)(F)F)cc1)c1ccc(OCCN2CCOCC2)c(-c2cncnc2)c1` [Example 37, 4-(2-Morpholinoethoxy)-3-(pyrimidin-5-yl)-N-(4-(trifluoromethoxy)phenyl)benzamide], the pIC50 on ABL1 (64-515) [1] is 8.44; in data set [3] (48 hours) it was 6.28.

Turning to `O=C(Nc1ccc(OC(F)(F)F)cc1)c1cnc(C2=CCOCC2)c(-c2cncnc2)c1` [Example 44, 6-(3,6-Dihydro-2h-pyran-4-yl)-5-(pyrimidin-5-yl)-N-(4-(trifluoromethoxy)phenyl)nicotinamide], the results for the pIC50 (on ABL1 (64-515) [1]; in data set [3] (48 hours)) were 8.22 and 6.67, respectively.

Consider `O=C(Nc1ccc(OC(F)(F)F)cc1)c1cnc(C2CCOCC2)c(-c2cncnc2)c1` [Example 45, 5-(Pyrimidin-5-yl)-6-(tetrahydro-2h-pyran-4-yl)-N-(4-(trifluoromethoxy)phenyl)nicotinamide], for which the pIC50 in data set [3] (48 hours) is 6.34.

Turning to `CC(C)(C#N)c1ncc(C(=O)Nc2ccc(OC(F)(F)F)cc2)cc1-c1cncnc1` [Example 47, 6-(2-Cyanopropan-2-yl)-5-(pyrimidin-5-yl)-N-(4-(trifluoromethoxy)phenyl)nicotinamide], in data set [3] (48 hours), the pIC50 is 6.13.

Turning to `N#CC1(c2ncc(C(=O)Nc3ccc(OC(F)(F)F)cc3)cc2-c2cncnc2)CCC1` [Example 48, 6-(1-Cyanocyclobutyl)-5-(pyrimidin-5-yl)-N-(4-(trifluoromethoxy)phenyl)nicotinamide], the pIC50 is 8.05 at ABL1 (64-515) [1], 7.74 with Ba/F3-BCR-ABL1-WT cells (48 hours), 8.21 on ABL1 (64-515) [4] and 6.44 in data set [3] (48 hours).

`O=C(Nc1ccc(OC(F)(F)F)cc1)c1cnc(OCCO)c(-c2cncnc2)c1` [Example 52, 6-(2-hydroxyethoxy)-5-(pyrimidin-5-yl)-N-(4-(trifluoromethoxy)phenyl)nicotinamide]: the pIC50 on ABL1 (64-515) [1] is 7.64; on ABL1 (64-515) [4], 7.64; in data set [3] (48 hours) it was 6.30.

For `O=C(Nc1ccc(OC(F)(F)F)cc1)c1cnc(Cl)c(-c2cncnc2)c1` [Example 56, 6-Chloro-5-(pyrimidin-5-yl)-N-(4-(trifluoromethoxy)phenyl)nicotinamide], the pIC50 was 8.00 on ABL1 (64-515) [1], 8.00 on ABL1 (64-515) [4] and 6.31 in data set [3] (48 hours).

Regarding `O=C(Nc1ccc(OC(F)(F)F)cc1)c1cnc(C(F)(F)F)c(-c2cncnc2)c1` [Example 57, 5-(Pyrimidin-5-yl)-N-(4-(trifluoromethoxy)phenyl)-6-(trifluoromethyl)nicotinamide], the values for the pIC50 (on ABL1 (64-515) [1]; in data set [3] (48 hours)) were 7.66 and 6.15, respectively.

In the case of `CCOc1ncc(C(=O)Nc2ccc(OC(F)(F)F)cc2)cc1-c1cncnc1` [Example 58, 6-Ethoxy-5-(pyrimidin-5-yl)-N-(4-(trifluoromethoxy)phenyl)nicotinamide], the pIC50 at ABL1 (64-515) [1] was 7.31; at ABL1 (64-515) [4], 8.03; in data set [3] (48 hours), 6.12.

As to `CC(C)(O)c1ncc(C(=O)Nc2ccc(OC(F)(F)F)cc2)cc1-c1cncnc1` [Example 66, 6-(2-Hydroxypropan-2-yl)-5-(pyrimidin-5-yl)-N-(4-(trifluoromethoxy)phenyl)nicotinamide], in data set [3] (48 hours), the pIC50 is 6.14.

As to `O=C(Nc1ccc(OC(F)(F)Cl)cc1)c1cnc(OC2CCOCC2)c(-c2cncnc2)c1` [Example 67, N-(4-(Chlorodifluoromethoxy)phenyl)-5-(pyrimidin-5-yl)-6-((tetrahydro-2h-pyran-4-yl)oxy)nicotinamide], the pIC50 is 8.92 at ABL1 (64-515) [1], 8.42 on ABL1 (64-515) [4] and 6.34 in data set [3] (48 hours).

For the compound `COC(=O)c1ccc(C(=O)Nc2ccc(OC(F)(F)F)cc2)cc1-c1cncnc1` [Example 68, Methyl 2-(pyrimidin-5-yl)-4-((4-(trifluoromethoxy)phenyl)carbamoyl)benzoate], the pIC50 on ABL1 (64-515) [1] is greater than 8.52; at ABL1 (64-515) [4] it was 8.80; in data set [3] (48 hours), 6.75.

Turning to `O=C(Nc1ccc(OC(F)(F)F)cc1)c1cncc(-c2cncc(F)c2)c1` [Example 75, 5′-Fluoro-N-(4-(trifluoromethoxy)phenyl)-[3,3′-bipyridine]-5-carboxamide], the pIC50 in the data set with Ba/F3-BCR-ABL1-WT cells (48 hours) is 7.42; at ABL1 (64-515) [4], 7.59; in data set [3] (48 hours) it was 6.18.

In the case of `O=C(Nc1ccc(OC(F)(F)Cl)cc1)c1cnc(Cl)c(-c2cncnc2)c1` [Example 76, 6-Chloro-N-(4-(chlorodifluoromethoxy)phenyl)-5-(pyrimidin-5-yl)nicotinamide], the pIC50 in the data set on Ba/F3-BCR-ABL1-WT cells (48 hours) is 8.70; at ABL1 (64-515) [4], 8.54; in data set [3] (48 hours), 7.21.

On to `O=C(Nc1ccc(OC(F)(F)Cl)cc1)c1cnc(Cl)c(-c2cncc(F)c2)c1` [Example 78, 2-Chloro-N-(4-(chlorodifluoromethoxy)phenyl)-5′-fluoro-[3,3′-bipyridine]-5-carboxamide], for which the pIC50 was 8.15 with Ba/F3-BCR-ABL1-WT cells (48 hours), 8.41 on ABL1 (64-515) [4] and 6.39 in data set [3] (48 hours).

Values taken from patent publication US9315489B2, “Compounds and compositions for inhibiting the activity of ABL1, ABL2 and BCR-ABL1” (Novartis AG, priority 2012, dated 2016).
